Test results reported in ChEMBL document CHEMBL5108047 (J Med Chem, 2022).

Legend:
[1] = target: DNA polymerase theta (Homo sapiens, UniProt O75417); experiment: Inhibition of human DNA polymerase theta pol domain (1819 to 2590 residues) expressed in Escherichia coli BL21 (DE3) cells preincubated for 15 mins followed by DNA and dNTP addition and measured after 120 mins by Picogreen dye fluorescence intensity analysis
[2] = AUC in CD-1 mouse at 20 mg/kg, po measured upto 24 hrs by reverse phase LCMS analysis; format: ADME, organism-based; parameters: time < 24 hrs, dose 20 mg/kg, route po; settings: in vivo
[3] = target: T1, DNA polymerase alpha catalytic subunit (Homo sapiens, UniProt P09884); experiment: Inhibition of human DNA polymerase alpha
T1 sequence (P09884 whole entry): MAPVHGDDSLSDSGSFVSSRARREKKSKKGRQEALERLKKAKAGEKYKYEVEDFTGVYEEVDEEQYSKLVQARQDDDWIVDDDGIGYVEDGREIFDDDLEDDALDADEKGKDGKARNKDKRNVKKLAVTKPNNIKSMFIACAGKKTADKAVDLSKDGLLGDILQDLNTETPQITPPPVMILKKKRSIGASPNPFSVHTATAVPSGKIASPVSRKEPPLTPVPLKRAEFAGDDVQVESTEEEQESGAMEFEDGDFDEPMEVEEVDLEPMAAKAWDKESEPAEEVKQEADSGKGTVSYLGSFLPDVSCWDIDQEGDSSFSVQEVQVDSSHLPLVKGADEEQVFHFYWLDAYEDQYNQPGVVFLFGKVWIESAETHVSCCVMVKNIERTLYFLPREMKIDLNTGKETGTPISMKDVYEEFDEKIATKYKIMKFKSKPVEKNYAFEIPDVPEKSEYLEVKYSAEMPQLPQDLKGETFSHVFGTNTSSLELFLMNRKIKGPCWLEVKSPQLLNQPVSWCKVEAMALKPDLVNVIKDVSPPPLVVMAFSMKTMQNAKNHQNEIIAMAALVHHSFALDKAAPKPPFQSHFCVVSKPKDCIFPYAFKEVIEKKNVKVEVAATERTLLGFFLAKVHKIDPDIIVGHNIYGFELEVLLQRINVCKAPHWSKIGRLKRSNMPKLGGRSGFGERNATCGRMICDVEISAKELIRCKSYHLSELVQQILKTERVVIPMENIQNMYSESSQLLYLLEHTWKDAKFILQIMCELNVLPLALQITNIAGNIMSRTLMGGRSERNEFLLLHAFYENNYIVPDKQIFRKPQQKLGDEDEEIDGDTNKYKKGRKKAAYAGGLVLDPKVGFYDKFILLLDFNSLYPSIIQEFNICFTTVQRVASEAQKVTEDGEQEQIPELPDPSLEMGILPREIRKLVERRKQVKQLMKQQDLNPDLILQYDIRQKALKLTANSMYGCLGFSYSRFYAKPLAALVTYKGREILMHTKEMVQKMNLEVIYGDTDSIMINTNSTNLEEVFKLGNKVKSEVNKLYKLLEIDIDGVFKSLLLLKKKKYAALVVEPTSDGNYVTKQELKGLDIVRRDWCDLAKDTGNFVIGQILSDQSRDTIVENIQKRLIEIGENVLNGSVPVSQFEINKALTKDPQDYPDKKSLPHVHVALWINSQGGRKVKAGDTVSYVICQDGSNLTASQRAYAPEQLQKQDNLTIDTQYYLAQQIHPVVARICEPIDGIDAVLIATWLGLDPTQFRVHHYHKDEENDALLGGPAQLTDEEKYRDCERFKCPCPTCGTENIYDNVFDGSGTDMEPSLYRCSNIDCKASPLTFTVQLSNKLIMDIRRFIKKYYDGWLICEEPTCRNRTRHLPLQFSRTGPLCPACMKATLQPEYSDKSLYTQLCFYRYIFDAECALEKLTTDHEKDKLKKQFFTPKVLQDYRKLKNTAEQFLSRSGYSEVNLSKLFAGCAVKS

[4] = test system: HCT-116; experiment: Antiproliferative activity against BRCA2 knock in human HCT-116 cells assessed as inhibition of cell growth incubated for 7 days with media replacement for every 3 or 4 days; format: functional, cell-based
[5] = fCaverage in CD-1 mouse; format: ADME
[6] = Half-life in CD-1 mouse at 2.5 mg/kg, po or 2.5 mg/kg, iv measured upto 24 hrs by reverse phase LCMS analysis; format: ADME, organism-based; settings: in vivo
[7] = Inhibition of Alt-Ej-mediated DNA repair in LIG4 knock out HEK293T cells; format: functional, cell-based, Homo sapiens; settings: hek-293t
[8] = Toxicity in CD-1 mouse xenografted with BRCA2 knock in human HCT-116 cells assessed as drug tolerance at 80 mg/kg, po administered twice a day for 21 days; format: organism-based; settings: in vivo, 504 h, time 21 day
[9] = AUC in CD-1 nude mouse at 80 mg/kg, po administered twice daily and measured on day 1 by HPLC-MS analysis; format: ADME, organism-based; parameters: dose 80 mg/kg, time 1 day, route po; settings: in vivo
[10] = AUC in CD-1 nude mouse at 80 mg/kg, po administered twice daily and measured on day 7 by HPLC-MS analysis; format: ADME, organism-based; parameters: time 7 day, dose 80 mg/kg, route po; settings: in vivo

DNA polymerase theta, sequence (O75417 whole entry, the tested form may be a part): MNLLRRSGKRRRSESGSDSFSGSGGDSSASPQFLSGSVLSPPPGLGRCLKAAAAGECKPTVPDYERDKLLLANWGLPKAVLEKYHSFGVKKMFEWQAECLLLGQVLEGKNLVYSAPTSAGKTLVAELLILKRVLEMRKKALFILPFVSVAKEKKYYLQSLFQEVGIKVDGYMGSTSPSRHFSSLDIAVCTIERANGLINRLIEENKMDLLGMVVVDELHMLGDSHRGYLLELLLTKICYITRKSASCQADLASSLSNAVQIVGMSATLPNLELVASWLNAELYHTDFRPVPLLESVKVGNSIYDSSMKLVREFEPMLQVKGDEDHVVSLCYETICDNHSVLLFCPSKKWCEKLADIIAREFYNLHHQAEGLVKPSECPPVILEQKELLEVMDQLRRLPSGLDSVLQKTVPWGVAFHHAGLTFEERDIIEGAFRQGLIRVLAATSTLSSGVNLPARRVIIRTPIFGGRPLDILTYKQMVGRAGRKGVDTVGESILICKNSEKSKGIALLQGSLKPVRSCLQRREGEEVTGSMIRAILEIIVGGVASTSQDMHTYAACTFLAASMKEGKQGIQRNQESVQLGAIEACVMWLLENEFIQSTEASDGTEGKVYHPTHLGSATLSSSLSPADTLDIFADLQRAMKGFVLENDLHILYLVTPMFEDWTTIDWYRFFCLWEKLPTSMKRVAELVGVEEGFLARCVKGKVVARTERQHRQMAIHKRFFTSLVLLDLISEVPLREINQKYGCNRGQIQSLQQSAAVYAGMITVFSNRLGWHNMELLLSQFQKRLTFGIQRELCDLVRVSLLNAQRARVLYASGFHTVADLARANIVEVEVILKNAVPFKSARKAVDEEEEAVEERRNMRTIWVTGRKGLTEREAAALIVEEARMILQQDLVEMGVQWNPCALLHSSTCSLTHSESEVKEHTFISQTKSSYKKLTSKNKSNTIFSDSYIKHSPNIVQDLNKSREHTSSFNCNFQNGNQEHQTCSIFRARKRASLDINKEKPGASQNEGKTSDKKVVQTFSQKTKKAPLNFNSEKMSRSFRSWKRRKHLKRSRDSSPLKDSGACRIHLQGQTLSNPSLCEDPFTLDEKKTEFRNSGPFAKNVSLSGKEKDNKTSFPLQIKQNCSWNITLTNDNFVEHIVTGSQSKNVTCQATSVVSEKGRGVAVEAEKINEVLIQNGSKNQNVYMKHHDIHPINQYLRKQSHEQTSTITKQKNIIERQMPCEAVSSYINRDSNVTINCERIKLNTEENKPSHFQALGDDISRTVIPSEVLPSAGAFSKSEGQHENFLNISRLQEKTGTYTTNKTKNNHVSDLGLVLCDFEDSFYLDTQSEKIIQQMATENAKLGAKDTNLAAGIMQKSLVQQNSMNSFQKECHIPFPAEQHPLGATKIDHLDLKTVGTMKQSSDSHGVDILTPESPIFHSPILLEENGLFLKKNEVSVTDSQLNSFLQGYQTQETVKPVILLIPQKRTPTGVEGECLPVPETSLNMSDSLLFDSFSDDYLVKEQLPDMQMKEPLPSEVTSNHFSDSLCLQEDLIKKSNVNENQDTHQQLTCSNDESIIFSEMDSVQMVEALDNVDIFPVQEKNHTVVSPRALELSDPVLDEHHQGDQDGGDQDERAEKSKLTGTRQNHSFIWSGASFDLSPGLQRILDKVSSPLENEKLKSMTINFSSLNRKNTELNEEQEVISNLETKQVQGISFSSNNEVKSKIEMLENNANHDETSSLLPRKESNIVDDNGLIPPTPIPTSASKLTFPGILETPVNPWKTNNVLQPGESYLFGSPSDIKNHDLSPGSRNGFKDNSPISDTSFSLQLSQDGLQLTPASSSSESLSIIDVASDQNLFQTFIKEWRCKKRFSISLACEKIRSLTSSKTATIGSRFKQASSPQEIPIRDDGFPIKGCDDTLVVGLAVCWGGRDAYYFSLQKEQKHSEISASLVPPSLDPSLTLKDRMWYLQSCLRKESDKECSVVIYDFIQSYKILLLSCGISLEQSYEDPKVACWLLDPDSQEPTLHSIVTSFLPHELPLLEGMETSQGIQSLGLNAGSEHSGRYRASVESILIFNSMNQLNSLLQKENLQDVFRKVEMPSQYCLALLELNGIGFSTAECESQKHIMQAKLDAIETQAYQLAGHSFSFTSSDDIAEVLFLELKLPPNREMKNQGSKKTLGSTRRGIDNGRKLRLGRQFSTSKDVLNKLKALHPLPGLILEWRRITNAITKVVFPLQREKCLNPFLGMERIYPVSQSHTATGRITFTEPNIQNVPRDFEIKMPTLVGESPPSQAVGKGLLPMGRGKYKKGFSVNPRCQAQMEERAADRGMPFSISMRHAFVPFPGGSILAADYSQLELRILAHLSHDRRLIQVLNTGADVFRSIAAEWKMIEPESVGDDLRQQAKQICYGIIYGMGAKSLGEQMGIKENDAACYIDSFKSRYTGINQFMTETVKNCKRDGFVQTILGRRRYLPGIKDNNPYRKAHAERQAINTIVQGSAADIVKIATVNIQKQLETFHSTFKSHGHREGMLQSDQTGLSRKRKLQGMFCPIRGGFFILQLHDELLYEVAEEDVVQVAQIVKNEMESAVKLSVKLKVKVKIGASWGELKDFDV

With `Nc1ccc(C#CCN(C(=O)Cc2ncc(C(F)(F)F)cc2C(F)(F)F)c2ccc(F)cc2)nn1` as the molecule, how does the IC50 [1] read?
Its IC50 is 5.8 nM.

And the AUC [2]?
The AUC was 49.7 µM·h.

What about the IC50 [3] of the same molecule?
Its IC50 is greater than 100000 nM.

What about the IC50 [4] of the same molecule?
The IC50 was greater than 15000 nM.

What about the “f(Cave)” value [5] of the same molecule?
The value was 107 nM.

What about the t1/2 [6] of the same molecule?
The t1/2 was 24 min.

What about the IC50 [7] of the same molecule?
Its IC50 is 2150 nM.

And the Activity [8]?
The Activity was “Non-Toxic”.

And the AUC at 24 h [9]?
The AUC at 24 h was 32.6 µM·h.

What about the AUC at 168 h [10] of the same molecule?
Its AUC at 168 h is 14.7 µM·h.
